# pIC50: −log10 of the molar value.
# Target: GST-MEK (p45MEK) and GST-MAPK (p44MAP kinase) (Homo sapiens, UniProt Q02750)
# Assay: Cascade assay for inhibitors of the MAP kinase pathway (In Vitro)
# Assay type: biochemical
# Conditions: incorporation of 32P into myelin basic protein
# Experimental: Cascade Assay for Inhibitors of the MAP Kinase Pathway
# Incorporation of ^32P into myelin basic protein (MBP) was assayed in the presence of a glutathione S-transferase fusion protein containing p44MAP kinase (GST-MAPK) and a glutathione S-transferase fusion protein containing p45MEK (GST-MEK). The assay solution contained 20 mM HEPES, pH 7.4, 10 mM MgCl2, 1 mM MnCl2, 1 mM EGTA, 50 μM [γ-^32P]ATP, 10 μg GST-MEK0.5 μg GST-MAPK and 40 μg MBP in a final volume of 100 μL. Reactions were stopped after 20 minutes by addition of trichloroacetic acid and filtered through a GF/C filter mat. ^32P retained on the filter mat was determined using a 1205 Betaplate. Compounds were assessed at 10 μM for ability to inhibit incorporation of ^32P.
# To ascertain whether compounds were inhibiting GST-MEK or GST MAPK, two additional protocols were employed. In the first protocol, compounds were added to tubes containing GST-MEK, followed by addition of GST-MAPK, MBP and [γ-^32P]ATP. In the second protocol, compounds were added to tubes containing both GST-MEK and GST-MAPK, followed by MBP and [γ-^32P]ATP.
# Sequence of GST-MEK (p45MEK) and GST-MAPK (p44MAP kinase) (Q02750 whole entry): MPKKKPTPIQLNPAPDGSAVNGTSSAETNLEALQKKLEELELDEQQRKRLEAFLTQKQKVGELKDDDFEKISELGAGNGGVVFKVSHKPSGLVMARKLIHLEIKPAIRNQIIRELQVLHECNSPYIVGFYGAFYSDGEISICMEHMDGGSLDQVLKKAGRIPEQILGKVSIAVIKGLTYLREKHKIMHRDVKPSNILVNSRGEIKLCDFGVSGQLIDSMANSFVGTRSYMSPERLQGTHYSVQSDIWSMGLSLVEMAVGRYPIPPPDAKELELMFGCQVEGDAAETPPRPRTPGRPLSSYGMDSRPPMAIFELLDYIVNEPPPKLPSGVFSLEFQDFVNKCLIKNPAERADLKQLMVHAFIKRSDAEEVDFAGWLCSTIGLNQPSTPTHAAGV
SMILES,IC50 [nM],pIC50
"Cc1cc(I)ccc1Nc1ccc(F)cc1C(=O)NCCCN1CCN(CCO)CC1 [Example 90, 5-Fluoro-N-{3-[4-(2-hydroxy-ethyl)-piperazin-1-yl]-propyl}-2-(4-iodo-2-methyl-phenylamino)-benzamide]",604,
"CCCCNC(=O)c1ccc(F)cc1Nc1ccc(I)cc1C [Example 46, N-Butyl-4-fluoro-2-(4-iodo-2-methyl-phenylamino)-benzamide]",1814,
"Cc1cc(I)ccc1Nc1cc(F)ccc1C(=O)NCCCN1CCN(CCO)CC1 [Example 44, 4-Fluoro-N-{3-[4-(2-hydroxy-ethyl)-piperazin-1-yl]-propyl}-2-(4-iodo-2-methyl-phenylamino)-benzamide]",1481,
"Cc1cc(I)ccc1Nc1ccc(Br)cc1C(=O)N1CCC(O)C1 (stereo not shown) [Example 100, [5-Bromo-2-(4-iodo-2-methyl-phenylamino)-phenyl]-(3-hydroxy-pyrrolidin-1-yl)-]",1994,
"Cc1ccc(Nc2ccc(I)cc2C)c(C(=O)O)c1 [Example 28, 5-Methyl-2-(4-iodo-2-methyl-phenylamino)-benzoic acid]",3670,
"Cc1cc(I)ccc1Nc1ccc(I)cc1C(=O)NCCO [Example 191, N-(2-Hydroxy-ethyl)-5-iodo-2-(4-iodo-2-methyl-phenylamino)-benzamide]",1355,
"CCCNC(=O)c1ccc(F)cc1Nc1ccc(I)cc1C [Example 41, 4-Fluoro-2-(4-iodo-2-methyl-phenylamino)-N-propyl-benzamide]",872,
"Cc1cc(I)ccc1Nc1ccc([N+](=O)[O-])cc1CO [Example 51, [2-(4-Iodo-2-methyl-phenylamino)-5-nitro-phenyl]-methanol]",887,
"Cc1cc(I)ccc1Nc1cc(F)ccc1C(=O)Nc1nnn[nH]1 [Example 37, 4-Fluoro-2-(4-iodo-2-methyl-phenylamino)-N-(1H-tetrazol-5-yl)-benzamide]",237,
"Cc1cc(I)ccc1Nc1ccc(Br)cc1C(=O)O [Example 8, 5-Bromo-2-(4-iodo-2-methyl-phenylamino)-benzoic acid]",86,
"CCN(CC)C(=O)c1cc(Cl)ccc1Nc1ccc(I)cc1C [Example 47, 5-Chloro-N,N-diethyl-2-(4-iodo-2-methyl-phenylamino)-benzamide]",1911,
"Cc1cc(I)ccc1Nc1ccc(F)cc1C(=O)NOCc1ccccc1 [Example 186, N-Benzy1oxy-5-fluoro-2-(4-iodo-2-methyl-phenylamino)-benzamide]",,6.26
"Cc1cc(I)ccc1Nc1c(F)cc(C(=O)O)c(F)c1F [Example 22, 2,3,5-Trifluoro-4-(4-iodo-2-methyl-phenylamino)-benzoic acid]",1581,
"Cc1cc(Br)ccc1Nc1c(C(=O)O)ccc(F)c1F [Example 15, 2-(4-Bromo-2-methyl-phenylamino)-3,4-difluoro-benzoic acid]",194,
"CCN(CC)C(=O)c1cc([N+](=O)[O-])ccc1Nc1ccc(I)cc1C [Example 45, N,N-Diethyl-2-(4-iodo-2-methyl-phenylamino)-5-nitro-benzamide]",1755,
"CCN(CC)CCNC(=O)c1cc(Cl)ccc1Nc1ccc(I)cc1C [Example 93, 5-Chloro-N-(2-diethylamino-ethyl)-2-(4-iodo-2-methyl-phenylamino)-benzamide]",521,
"Cc1cc(I)ccc1Nc1ccc([N+](=O)[O-])cc1C(=O)NCCO [Example 195, N-(2-Hydroxy-ethyl)-2-(4-iodo-2-methyl-phenylamino)-s-nitro-benzamide]",,4.89
"Cc1cc(I)ccc1Nc1ccc(Cl)cc1C(=O)NC1CC1 [Example 192, 5-Chloro-N-cyclopropyl-2-(4-iodo-2-methyl-phenylamino)-benzamide]",1797,
"Cc1cc(I)ccc1Nc1ccc([N+](=O)[O-])cc1C(=O)NCc1ccncc1 [Example 91, 2-(4-Iodo-2-methyl-phenylamino)-5-nitro-N-pyridin-4-yl methyl-benzamide]",2071,
"O=C(O)c1cc([N+](=O)[O-])ccc1Nc1ccc(I)cc1Br [Example 14, 2-(2-Bromo-4-iodo-phenylamino)-5-nitro-benzoic acid]",179,
"Cc1cc(I)ccc1Nc1c(F)cccc1C(=O)O [Example 16, 3-Fluoro-2-(4-iodo-2-methyl-phenylamino)-benzoic acid]",323,
"Cc1cc(I)ccc1Nc1ccc(Cl)cc1C(=O)N(C)C [Example 39, 5-Chloro-2-(4-iodo-2-methyl-phenylamino)-N,N-dimethyl-benzamide]",497,
"Cc1cc(I)ccc1Nc1ccc([N+](=O)[O-])cc1C(=O)N(C)c1ccccc1 [Example 189, 2-(4-Iodo-2-methyl-phenylamino)-N-methyl-5-nitro-N-phenyl-benzamide]",859,

SMILES,IC50 [nM],pIC50
"CCNC(=O)c1ccc(F)cc1Nc1ccc(I)cc1C [Example 35, N-Ethyl-4-fluoro-2-(4-iodo-2-methyl-phenylamino)-benzamide]",121,
"Cc1cc(I)ccc1Nc1ccc(Cl)cc1C(=O)NCCO [Example 187, 5-Chloro-N-(2-hydroxy-ethyl)-2-(4-iodo-2-methyl-phenylamino)-benzamide]",561,
"Cc1cc(I)ccc1Nc1ccc(F)cc1C(=O)O [Example 20, 5-Fluoro-2-(4-iodo-2-methyl-phenylamino)-benzoic acid]",557,
"Cc1cc(I)ccc1Nc1ccc(F)cc1C(=O)N(C)c1ccccc1 [Example 194, 5-Fluoro-2-(4-iodo-2-methyl-phenylamino)-N-methyl-N-phenyl-benzamide]",4952,
"Cc1cc(I)ccc1Nc1ccc([N+](=O)[O-])cc1C(=O)NC1CCCCC1 [Example 184, N-Cyclohexyl-2-(4-iodo-2-methyl-phenylamino)-5-nitro-benzamide]",278,
"Cc1cc(Br)ccc1Nc1cc(F)ccc1C(=O)O [Example 13, 2-(4-Bromo-2-methyl-phenylamino)-4-fluoro-benzoic acid]",178,
"O=C(O)c1cccc(Cl)c1Nc1ccc(I)cc1Cl [Example 25, 3-Chloro-2-(2-chloro-4-iodo-phenylamino)-benzoic acid]",2363,
"Cc1cc(I)ccc1Nc1ccc(Cl)cc1C(=O)[O-].[Na+] [Example 7, Sodium 5-Chloro-2-(4-iodo-2-methyl-phenylamino)-benzoate]",72,
"Cc1cc(I)ccc1Nc1ccccc1C(=O)O [Example 19, 2-(4-Iodo-2-methyl-phenylamino)-benzoic acid]",524,
"Cc1cc(I)ccc1Nc1c(C(=O)O)cc(F)c(F)c1F [Example 2, 3,4,5-Trifluoro-2-(4-iodo-2-methyl-phenylamino)-benzoic acid]",14,
"Cc1cc(I)ccc1Nc1cc(F)ccc1C(=O)O [Example 1, 4-Fluoro-2-(4-iodo-2-methylphenylamino)benzoic acid]",19,
"Cc1cc(I)ccc1Nc1ccc(Br)cc1C(=O)NCCO [Example 42, 5-Bromo-N-(2-hydroxy-ethyl)-2-(4-iodo-2-methyl-phenylamino)-benzamide]",920,
"Cc1cc(I)ccc1Nc1ccc(Br)cc1C(=O)NCCO [Example 188, 5-Bromo-N-(2-hydroxy-ethyl)-2-(4-iodo-2-methyl-phenylamino)-benzamide]",771,
"Cc1c(Nc2cc(F)ccc2C(=O)O)ccc(I)c1Cl [Example 23, 4-Fluoro-2-(3-chloro-4-iodo-2-methyl-phenylamino) benzoic acid]",1588,
"Cc1cc(I)ccc1Nc1cc(F)ccc1C(=O)N(C)C [Example 36, 4-Fluoro-2-(4-iodo-2-methyl-phenylamino)-N,N-dimethyl-benzamide]",129,
"Cc1cc(I)ccc1Nc1cccc(F)c1C(=O)O [Example 26, 2-Fluoro-6-(4-iodo-2-methyl-phenylamino)-benzoic acid]",2609,
Cc1cc(I)ccc1Nc1ccc(Br)cc1C(=O)N(C)C [Example 48],1945,
"Cc1cc(I)ccc1Nc1ccc(Br)cc1C(=O)NCCCN1CCN(CCO)CC1 [Example 92, 5-Bromo-N-{3-[4-(2-hydroxy-ethyl)-piperazin-1-yl]-propyl}-2-(4-iodo-2-methyl-phenylamino)-benzamide]",253,
"COc1ccc(Nc2ccc(I)cc2)c(C(=O)O)c1 [Example 24, 2-(4-Iodo-phenylamino)-5-methoxy-benzoic acid]",1944,
"Cc1cc(I)ccc1Nc1ccc(Cl)cc1C(=O)O [Example 6, 5-Chloro-2-(4-iodo-2-methyl-phenylamino)-benzoic acid]",71,
"Cc1cc(I)ccc1Nc1c(C(=O)NCC(O)CO)ccc(F)c1F (stereo not shown) [Example 54, N-(2,3-Dihydroxy-propyl)-3,4-difluoro-2-(4-iodo-2-methyl-phenylamino)-benzamide]",158,
"Cc1cc(I)ccc1Nc1ccc(Br)cc1CO [Example 52, [5-Bromo-2-(4-iodo-2-methyl-phenylamino)-phenyl]-methanol]",2346,
"Cc1cc(I)ccc1Nc1c(C(=O)O)ccc(F)c1F [Example 3, 3,4-Difluoro-2-(4-iodo-2-methyl-phenylamino)-benzoic acid]",11.1,
